Like-named read-outs stand apart in the source and are kept apart here. Starred links: 1 amine or outer side, 2 acyl side, 3 side chain; linkers in the order of their positions; H or OH if unused. Positions of bridges follow the written chain, without caps; N, C: chain ends. Non-standard residues stand in square brackets, D forms with d. Residues, ends and D or L forms follow the SMILES beside them. Chains are numbered I, II in the order given. *: point of attachment. Actinocin(9to1) = Cc1c2oc3c(C)ccc(C(=O)[*:1])c3nc-2c(C(=O)[*:2])c(N)c1=O; NMeV = CN[C@H](C(=O)O)C(C)C; Cbz = O=C(OCc1ccccc1)*; Sar = CNCC(=O)O
Key:
[1] = tested on: SLC30A10; format: cell-based, human; settings: for SLC30A10 expression after prolyl hydroxylase inhibitor: indicated doses for 16 h or indicated times, no drug normalized to 1
Procedure: (§1) Cells were treated with 0 or 250 μM manganese for 4 h, and gene expression was analyzed by qRT-PCR. For each transcript, expression without manganese treatment was normalized to 1. N=4. Data are mean±SE.
(§2) Cell culture. HepG2 cells were grown in Eagle's modified essential medium (MEM; Corning) with 10% fetal bovine serum (Atlanta Biologicals), 100 IU/ml penicillin (Corning), and 100 μg/ml streptomycin (Corning). 293T cells were maintained in Dulbecco's modified essential medium/F12 (Thermo) supplemented with 10% fetal bovine serum, penicillin (100 IU/ml), and streptomycin (100 μg/ml). Human primary hepatocytes were purchased from XenoTech (catalog #HPCH10+) and cultured according to protocols provided by the supplier.
(§3) manganese and drug treatments in cell culture. Cells were treated with indicated levels of manganese as manganeseCl2.4H2O (Fisher). Vehicle for manganese treatment was water. Prolyl hydroxylase inhibitors roxadustat (Caymen), vadadustat, and molidustat (both APE-Bio); the HIFα inhibitor LW6 (Selleckchem); the proteasomal inhibitor MG132 (Sigma); and the transcription inhibitor actinomycin D (Sigma) were dissolved in DMSO. […] Vehicle treatment for all drugs was DMSO.
(§4) Quantitative RT-PCR assays. RNA extraction from HepG2 cells and mouse tissue, reverse transcription to cDNA, and qRT-PCR analyses were performed as described by us previously (47, 50). For analyses of mouse brain samples, a part of the midbrain, including the basal ganglia, was used. Transcript levels were quantified using the ΔΔCT method with 18S (in mice) or TBP (in HepG2 cells) as the internal control, also as described by us previously (47, 50).

[2] = tested on: HIF1α; format: cell-based, human; settings: HepG2 cells, 20 μM roxadustat, 80 μM vadadustat or 20 μM molidustat for 16 h
Procedure: as §3
(§5) Immunoblots. HepG2 cells were cultured in 35 mm dishes, treated with or without manganese, MG132 and/or prolyl hydroxylase inhibitors, and scrapped using 200 μl of RIPA buffer (50 mM Tris-HCl, pH7.4; 150 mM NaCl; 1Mm EDTA; 1% Triton; 0.25% sodium deoxycholate; protease inhibitors cocktail (Thermo A32953)). Whole-cell lysates were prepared by adding loading buffer (50 mM Tris-HCl, pH 7.4; 2% sodium dodecyl sulfate; 10% glycerol, 0.1 M dithiothreitol; 0.01% (weight/volume) bromophenol blue) and boiling the samples for 5 min. Equal volumes of samples were loaded per lane. Further processing was as described by us previously (47). Images were quantified using ImageQuant TL software (GE).
(§6) Antibodies and chemicals. The inventors used the following commercial primary antibodies in this study: rabbit polyclonal anti-HIF1α (Abcam, Ab2185), rabbit polyclonal anti-HIF2α (Novus, NB100-122), rabbit monoclonal anti-HIF1α proline 564 (Cell signaling, 3434S), and mouse monoclonal anti-tubulin (Sigma, T5168). […] Sources of chemicals not provided elsewhere were Thermo Fisher Scientific or Sigma-Aldrich.

[3] = tested on: HIF2α; format: cell-based, human; settings: HepG2 cells, 20 μM roxadustat, 80 μM vadadustat or 20 μM molidustat for 16 h
Procedure: as §3, §5, §6

[4] = tested on: HepG2 cells; format: cell-based, human
Procedure: as §2, §3
(§7) Inductively coupled plasma mass spectrometry. Metal measurements using ICP-MS were performed exactly as described by us previously (47, 50, 51, 99).

[5] = tested on: HepG2 cells; test: MTT cell viability assay, manganese-induced cell death; format: cell-based, human; settings: 20 μM roxadustat, 80 μM vadadustat or 20 μM molidustat for 16 h then manganese for 24 h
Procedure: manganese and drug treatments in cell culture. […] Vehicle for manganese treatment was water. […] Vehicle treatment for all drugs was DMSO.
Cell viability assays. These were performed using the 3-(4,5-dimethylthiazol-2-yl)-2,5-diphenyl tetrazolium bromide (MTT) reagent (Sigma) as described by us previously (47, 50).

[6] = tested on: SLC30A10; format: cell-based; settings: primary human hepatocytes; for SLC30A10 expression after prolyl hydroxylase inhibitor: 20 μM roxadustat or 80 μM vadadustat for 16 h
Procedure: (§8) (A) and (B): qRT-PCR assays in cells treated with or without 10 μM LW6 for 1 h followed by 0 or 250 μM manganese for 4 h (A) or with or without 20 μM roxadustat or 80 μM vadadustat for 16 h (B). […] For (B), expression in the absence of drug treatment was normalized to 1. N=3. Mean±SE. *P<0.05 by t-test (A) or one-way ANOVA and Dunnett's post hoc test for the comparison between no drug and other conditions (B).
as §2, §3, §4

[7] = tested on: VEGF; format: cell-based; settings: primary human hepatocytes; for VEGF expression after prolyl hydroxylase inhibitor: 20 μM roxadustat or 80 μM vadadustat for 16 h
Procedure: as §8, §2, §3, §4

[8] = tested on: prolyl hydroxylated HIF1α; format: cell-based, human
Procedure: as §3, §5, §6

[9] = tested on: VEGF; format: cell-based, human; settings: HepG2 cells, 10 μM LW6 for 1 h then 250 μM manganese for 4 h
Procedure: as §1, §2, §3, §4

[10] = tested on: SLC30A10 promoter; format: cell-based, human
Description: A luciferase reporter plasmid containing the proximal promoter of human SLC30A10 has been previously described and was a gift of Dr. Ruth Valentine (100). The promoter fragment corresponding to bases −679 to +211 relative to the start of transcription was sub-cloned into the Xho1 and SpeI sites of pRRLSIN.cPPTLuciferase.WPRE vector (Addgene, #69251), which is a luciferase vector for lentivirus infections. Deletion mutants were generated using the loop-out modification of the QuikChange protocol.
Lentiviral infections. Stable cells were generated by lentivirus infection essentially as described by us previously (49, 98). Briefly, lentivirus was produced in HEK293T cells by co-transfecting transfer plasmids described above with plasmids coding for a third generation packing system that is routinely used (pRSV-Rev, pRRE, and pCMV-VSVG) (49, 98). Viral supernatants were collected 40-48 h post-transfection. HepG2 cells for infection were plated in a 60 mm dish 24 h before infection so that cells reached a confluence of 30% on the day of infection. Collected viral supernatants were filtered through a 0.45-μm polyvinylidene difluoride filter, and cells were incubated with a 1:2 dilution of viral supernatant containing 5 μg/mL Polybrene (Santa Cruz). […]

[11] = tested on: SLC30A10; format: in vivo, mice; settings: C57BL/6J mice, roxadustat 10 mg/kg daily i.p. for 4 weeks
Procedure: A well-characterized drinking water-based manganese exposure regimen was used to model human environmental manganese exposure by providing mice with ˜50 mg manganeseCl2.4H2O/kg body weight daily (˜15 mg absolute manganese/kg per day) from birth until 8 weeks of age. This, and related similar, dosing regimens: 1) approximate the increase in manganese exposure in humans consuming well water contaminated with 1.5 mg manganese/L, which is the median well water concentration associated with neurological deficits in children; 2) increase brain manganese levels by ˜2-3 fold, similar to human patients; 3) produce measurable neurobehavioral deficits without overt toxicity; and 4) model exposure to manganese in developmentally-sensitive early-life and adolescent periods (11). Pre-weaning manganese was delivered by pipette directly into the mouth, and post-weaning manganese was delivered in drinking water using procedures described in detail in ref. (11). In brief, pre-weaning dosing was adjusted to each animal's body weight. For this, a stock solution of 69.2 mg absolute manganese/ml prepared in milliQ water was diluted in milliQ water containing 2.5% (wt/vol) of the natural sweetener Stevia (to facilitate intake by pups), and the required manganese amount (0.2 μl manganese stock/g body weight) was delivered in a dose of ˜5-10 μl/animal. For post-weaning exposure, a 27.7 mg absolute manganese/ml stock solution was prepared in water and diluted to 0.069 mg absolute manganese/ml in drinking water, which provided mice with ˜15 mg absolute manganese/kg per day based on a daily water intake of ˜2-5 ml/mouse depending on age.
(§9) To assay for the protective effect of roxadustat, animals were exposed to roxadustat or vehicle with or without manganese in drinking water from ˜4 weeks of age. Treatment lasted for 4 weeks from initiation. Roxadustat (Selleckchem) was prepared as a 50 mg/ml stock solution in DMSO, then diluted to 1 mg/ml in sterile phosphate buffered saline (PBS), and delivered by daily i.p. injection at 10 mg/kg. Vehicle was 2% DMSO in PBS. For this experiment, drinking water manganese levels were adjusted to 0.138 mg absolute manganese/ml so that animals received ˜30 mg absolute manganese/kg daily. A higher level of manganese was used because exposure was initiated after weaning, which was necessary because daily i.p. injections for roxadustat delivery were not possible in the pre-weaning period.
(§10) Animals were euthanized using carbon dioxide and tissue dissected for qRT-PCR or ICPMS analyses as described by us previously (50).
as §4

[12] = tested on: C57BL/6J mice
Procedure: as §9
Open-field assays for neurobehavior assessment. Open-field analyses were performed as described in a recent publication (51).

[13] = tested on: C57BL/6J mice; settings: roxadustat 10 mg/kg daily i.p. with or without manganese in drinking water, 4 weeks, two-way ANOVA
Procedure: as §9, §10, §7

[14] = 10 μM LW6 for 1 h then 250 μM manganese for 4 h

Row | Compound | SLC30A10 expression after prolyl hydroxylase inhibitor ([1]; HepG2 cells) | HIF1α protein levels after prolyl hydroxylase inhibitor [2] | HIF2α protein levels after prolyl hydroxylase inhibitor [3] | Intracellular Fe, Cu, and Zn levels [4] | Intracellular manganese in cells not exposed to manganese [4] | Intracellular manganese levels under elevated manganese exposure, versus controls [4] | Protection against manganese-induced cell death [5] | SLC30A10 expression after prolyl hydroxylase inhibitor [6] | VEGF expression after prolyl hydroxylase inhibitor [7] | further results
1 | O=C(O)CNC(=O)c1ncc(-c2cccc(Cl)c2)cc1O [vadadustat, 2-[[5-(3-chlorophenyl)-3-hydroxypyridine-2-carbonyl]amino]acetic acid] | enhanced | increased | increased | no effect | did not impact | significantly lower | protected | increased | increased | 
2 | Cc1c2oc3c(C)ccc(C(=O)N[C@@H]4C(=O)N[C@H](C(C)C)C(=O)N5CCC[C@H]5C(=O)N(C)CC(=O)N(C)[C@@H](C(C)C)C(=O)O[C@@H]4C)c3nc-2c(C(=O)N[C@@H]2C(=O)N[C@H](C(C)C)C(=O)N3CCC[C@H]3C(=O)N(C)CC(=O)N(C)[C@@H](C(C)C)C(=O)O[C@@H]2C)c(N)c1=O [actinomycin D, reference compound] (I: T[dV]P[Sar][NMeV] / II: T[dV]P[Sar][NMeV]; ester I:1-I:C, II:1-II:C; linker I:N-II:N via Actinocin(9to1)) |  |  |  |  |  |  |  |  |  | Effect of actinomycin D on increase in SLC30A10 mRNA after manganese exposure [1]: blocked
3 | CC(C)C[C@@H](C=O)NC(=O)[C@H](CC(C)C)NC(=O)[C@H](CC(C)C)NC(=O)OCc1ccccc1 [MG132, reference compound] (Cbz-Leu-Leu-Leu-aldehyde) |  |  |  |  |  |  |  |  |  | Prolyl hydroxylated HIF1α after proteasome inhibition [8]: accumulation
4 | COC(=O)c1ccc(O)c(NC(=O)COc2ccc(C34CC5CC(CC(C5)C3)C4)cc2)c1 [LW6, reference compound] |  |  |  |  |  |  |  |  |  | Effect of LW6 on manganese-induced upregulation of SLC30A10 ([1]; HepG2 cells, 10 μM LW6 for 1 h then 250 μM manganese for 4 h): robustly blocked; Effect of LW6 on manganese-induced upregulation of VEGF [9]: robustly blocked; Effect of LW6 on manganese-induced increase in activity of SLC30A10 promoter luciferase reporter [10]: abolished; Effect of LW6 on manganese-induced increase of SLC30A10 expression [6, 14]: inhibited; Effect of LW6 on manganese-induced increase of VEGF expression [7, 14]: inhibited
5 | Cc1nc(C(=O)NCC(=O)O)c(O)c2ccc(Oc3ccccc3)cc12 [roxadustat, 2-[(4-hydroxy-1-methyl-7-phenoxyisoquinoline-3-carbonyl)amino]acetic acid] | enhanced | increased | increased | no effect | did not impact | significantly lower | protected | increased | increased | Brain SLC30A10 levels [11]: did not impact; Intestinal SLC30A10 levels [11]: increased; Open-field activity, roxadustat treatment by itself ([12]; C57BL/6J mice, roxadustat 10 mg/kg daily i.p. for 4 weeks, no manganese): did not impact; Hypo-locomotor phenotype (reduced vertical movement) in mice treated with manganese and roxadustat ([12]; mouse, in vivo): not detected; Brain manganese levels, main effect of roxadustat [13]: reducing
